Assay results taken from patent US9765308B2, “Aromatic prenyltransferase from cannabis” (priority 2009, dated 2017).

Key:
[1] = molecular target: T1, CsPT1 (Cannabis sativa, UniProt A0A455ZIK6); assay: Prenyltransferase assay of recombinant CsPT1 with different aromatic acceptor substrates, geranyl diphosphate as prenyl donor; type: biochemical; details: for Product yield (%): yield of prenylated products by HPLC peak area, yield of cannabigerolic acid and 5-geranyl olivetolic acid set to 100%
Description: (§1) The prenyltransferase assay for CsPT1 comprised 100 mM Tris-HCl (pH 7.5), 0.2 mM olivetolic acid, 1 mM geranyl diphosphate and 5 mM MgCl2 in a final volume 100 μl. The reaction was initiated by addition of a 5 μl aliquot of microsomal preparation (64 μg protein), either from insect cells or yeast. After incubation for 1 h at 37° C., the reaction was terminated by addition of 10 μl 6 N HCl and extracted twice with 200 μl of ethyl acetate. The organic phase was evaporated to dryness and the residue dissolved in 50 μl of methanol. A 20 μl aliquot was analyzed by HPLC using a Waters 2695 system equipped with photodiode array detector on a Sunfire C18 reversed phase column 3.5 μm (4.6×150 mm) at a column temperature of 30° C. The mobile phase at 1 ml/min consisted of 50% water (containing 0.1% trifluoroacetic acid [TFA] [v/v]) and 50% acetonitrile over 10 min, 50% to 100% acetonitrile over 10 min, 100% acetonitrile to 50% acetonitrile over 1 min, 50% acetonitrile and 50% water over 4 min. The products were detected at 270 nm with photodiode array detection.
The activity of the recombinant CsPT1 was assayed to determine its use of different aromatic acceptor substrates using geranyl diphosphate as the prenyl donor substrate. […] In Table 3, Product yield is the yield of prenylated products as measured by HPLC peak area with the yield of cannabigerolic acid and 5-geranyl olivetolic acid set to 100%. Phlorisovalerophenone has not been detected in cannabis. It has been shown that cannabinoids with short side-chains exist in cannabis (e.g. tetrahydrocannabivarinic acid having a propyl side-chain instead of the pentyl side-chain of THC acid (Shoyama 1984). Given that CsPT1 accepts a variety of aromatic acceptor substrates, this enzyme likely is able to prenylate analogs of olivetolic acid that have differing side-chain length.

[2] = molecular target: T1, CsPT1; assay: Prenyltransferase assay of recombinant CsPT1 with different prenyl diphosphate donor substrates; type: biochemical; details: FIG. 6; n=3
Description: FIG. 6 depicts use of different prenyl diphosphate donor substrates by recombinant CsPT1, where DMAPP is dimethylally diphosphate, IPP is isopenetnyl diphosphate, GPP is geranyl diphosphate, NPP is neryl diphosphate, FPP is farnesyl diphosphate, and GGPP is geranylgeranyl diphosphate. Bar represents mean+/− standard deviation (n=3).
as §1, with “detection. […]” for “detection.”

SMILES | Product yield (%) [1] [%] | Geranylation of aromatic acceptor substrate by CsPT1 [1] | Use as prenyl donor substrate [2]
O=C(/C=C/c1ccc(O)cc1)c1c(O)cc(O)cc1O [Chalconaringenin] | 0 |  | 
COc1cc(-c2cc(=O)c3c(O)cc(O)cc3o2)ccc1O [Chrysoeriol] | 0 |  | 
CCCCCC(=O)Cc1cc(O)cc(=O)o1 [Hexanoyl triacetic acid lactone] | 0 |  | 
O=C(O)Cc1cc(O)ccc1O [Homogentisic acid] | 0 |  | 
O=c1cc(-c2ccc(O)c(O)c2)oc2cc(O)cc(O)c12 [Luteolin] | 0 |  | 
O=C1C[C@@H](c2ccc(O)cc2)Oc2cc(O)cc(O)c21 [Naringenin] | 31 | geranylated | 
CCCCCc1cc(O)cc(O)c1 [Olivetol] | 30 | geranylated | 
CCCCCc1cc(O)cc(O)c1C(=O)O [Olivetolic acid] | 100 | geranylated | 
CC(C)CC(=O)c1c(O)cc(O)cc1O [Phlorisovalerophenone] | 250 | geranylated | 
Oc1cc(O)cc(O)c1 [Phloroglucinol] | 0 |  | 
Oc1ccc(C=Cc2cc(O)cc(O)c2)cc1 [Resveratrol] | 32 | geranylated | 
CC(C)=CCC/C(C)=C/COP(=O)(O)OP(=O)(O)O [geranyl diphosphate] |  |  | only used geranyl diphosphate (GPP) as a prenyl donor
